Measurements reported in patent US20140094486A1, “SOLID STATE FORMS OF HIV INHIBITOR” (Gilead Sciences, Inc., priority 2011, published 2014).

How the values were obtained:
Format in all cases: physicochemical
[1] = physical and chemical stability under stress conditions
[2] = intrinsic dissolution rate; details: pH 2.0 buffer
[3] = moisture sorption/desorption measurements; details: based on moisture sorption/desorption measurements
solubility = experiment: solubility

physical and chemical stability [1]: exhibits physical and chemical stability | intrinsic dissolution rate [2]: 4528 μg/[cm^2×min] | hygroscopicity [3]: non-hygroscopic | solubility (solubility; pH 2, simulated gastric fluid): > 24 mg/mL | solubility (solubility; pH 4.5, aqueous buffer): > 24 mg/mL | solubility (solubility; pH 6.8, aqueous buffer): > 24 mg/mL
Compound: Cc1nc2ccccc2c(-c2ccc3c4c(ccnc24)CCO3)c1[C@H](OC(C)(C)C)C(=O)O (atropisomer, axis not shown) [Type A]
